Laboratory results reported in patent US20070203244A1, “INHIBITORS OF MEMBRANE TYPE-1 MATRIX METALLOPROTEINASE FOR THE TREATMENT OF INSULIN-DEPENDENT DIABETES MELLITUS” (priority 2006, published 2007).

Tests used:
NOD mice [1] = experiment: Adoptively transferred diabetes in NOD mice (IS-CD8+ cells); type: in vivo
Protocol: IS-CD8^+ cells were labeled with DiI and then injected in NOD mice. In 24 h, the labeled cells with their intra-islet location were counted in the cryostat sections of the entire pancreas. […] IS-CD8^+ cells were injected in NOD mice. […] PBS containing […] DMSO was used as a vehicle control. The onset of diabetes was monitored daily by measuring urine glucose levels with the Diastix reagent strips. Mice with urine glucose levels of ≧2000 mg/dl for 3 consecutive days were considered diabetic. * and **, p=0.02 and p=0.015 by Fisher's test, respectively.
Mice were monitored for 21 days. […] The onset of diabetes was identified by assessing urine glucose levels with Diastix® strips (Bayer). Mice with urine glucose levels of >2000 mg/dl for 3 consecutive days were considered diabetic. […] The level of glucose in the urine closely follows that in the blood (Traisman, H. S., and Greenwood, R. D. (1973)). The measurement of glucose in urine is a widely accepted method to follow the development of diabetes in NOD mice (Pomerleau, D. P., et al. (2005)).

[2] = continuous oral dosing, cited from earlier work
MT1-MMP [3] = molecular target: T1, MT1-MMP (Mus musculus, UniProt P53690); experiment: MT1-MMP-dependent MMP-2 activation in adherent IS-CD8+ cells, gelatin zymography; type: cell-based, NOD mouse
T1 construct: Endogenous MT1-MMP is latent in non-adherent IS-CD8^+ cells; endogenous in cells; host or cells: IS-CD8+ T cells (TGNFC8 clone, NOD mouse), adherent to gelatin
Protocol: MT1-MMP-dependent MMP-2 Activation and Gelatin Zymography—IS-CD8^+ cells (1×10^6) were either allowed to adhere for 4 h in serum-free unsupplemented Click's medium to plastic coated with 2% gelatin or kept in solution. Under these experimental conditions, the vast majority of cells became attached to gelatin. In 4 h, media samples (30 μl each) were withdrawn and analyzed by gelatin zymography (Deryugina, E. I., et al. (2001)) to identify the proteolytic activity and the activation status of MMP-2 naturally synthesized by IS-CD8^+ cells. Where indicated, cells were supplemented with external purified pro-MMP-2 (20 ng). Pro-MMP-2 was isolated from a conditioned medium of p2AHT2A72 cells derived from an HT1080 fibrosarcoma cell line sequentially transfected with the E1A and MMP-2 cDNAs (Strongin, A. Y., et al. (1995)).
MT1-MMP-dependent MMP-2 activation and gelatin zymography—IS-CD8^+ cells (1×10^6) were either allowed to adhere for 4 h in serum-free unsupplemented Click's medium to the plastic coated with 2% gelatin or kept in solution. In 18 h, media samples (30 μl each) were withdrawn and analyzed by gelatin zymography (Deryugina, E. I., et al. (2001)) to identify the proteolytic activity and the activation status of MMP-2 naturally synthesized by IS-CD8^+ cells. […] Pro-MMP-2 was isolated from a conditioned medium of p2AHT2A72 cells derived from an HT1080 fibrosarcoma cell line sequentially transfected with the E1A and MMP-2 cDNAs (Strongin, A. Y., et al. (1995)).

[4] = tested on: CD44 shedding in IS-CD8+ cells; experiment: CD44 shedding in adherent IS-CD8+ cells, Western blotting; type: cell-based, NOD mouse
Protocol: Western Blotting—IS-CD8^+ cells were surface biotinylated for 1 h at 4° C. with 0.1 mg/ml sulfo-NHS-LC-biotin (Pierce, Rockford, Ill.). Following washes to remove biotin, cells were co-incubated for 2 h with MT1-MMP-CAT in serum-free, unsupplemented Click's medium. The cells were then lysed with 50 mM N-octyl-β-D-glucopyranoside in phosphate-buffered saline supplemented with 1 mM CaCl2, 1 mM MgCl2, and protease inhibitor mixture containing phenylmethylsulfonyl fluoride (1 mM) and aprotinin, pepstatin, and leupeptin (1 μg/ml each). Biotin-labeled CD44 was captured from the cell lysate and from the medium aliquots on streptavidin-agarose beads. The captured samples were examined by Western blotting with the CD44 (clone IM7.8.1) antibody to determine the released, soluble, CD44 ectodomain in the medium samples and the residual, membrane-anchored, cellular CD44 in the cell lysates.
Western blotting—IS-CD8^+ cells were surface biotinylated for 1 hr at 4° C. with 0.1 mg/ml of sulfo-NES-LC-biotin (Pierce). Following washes to remove biotin, the labeled cells were allowed to adhere in serum-free medium to plastic coated with 2% type I collagen/gelatin for 4 h or were kept in suspension. Under these experimental conditions, the vast majority of the cells became attached to gelatin. […] The cells were then lysed with 50 mM N-octyl-β-D-glucopyranoside in PBS supplemented with 1 mM CaCl2, 1 mM MgCl2, and protease inhibitor cocktail containing phenylmethylsulfonyl fluoride (1 mM) and aprotinin, pepstatin, and leupeptin (1 μg/ml each). Biotin-labeled CD44 was captured from the cell lysate and from the medium aliquots on streptavidine-Agarose beads. The captured samples were examined by Western blotting with the CD44 (clone IM7.8.1) antibody to determine the released, soluble, CD44 ectodomain in the medium samples and the residual, membrane-anchored, cellular CD44 in the cell lysates.

MT1-MMP [5] = conditions: cited from earlier work
NOD mice [6] = experiment: Spontaneous diabetes in NOD mice, insulin jointly with AG3340; type: in vivo
Protocol: Newly diabetic NOD mice—NOD mice developed diabetes in approximately 5 months after the birth. The onset of spontaneous diabetes was identified by assessing urine glucose levels with Diastix® strips (Bayer). Mice with urine glucose levels >2000 mg/dl for three consecutive days were considered diabetic. […] Injections were continued for 40 days and then mice were sacrificed. Leukocytes and granulated β cells were stained with H&E and aldehyde fuchsin, respectively, in the sections of paraformaldehyde-fixed, paraffin-embedded, pancreata. […] To identify hormone-producing cells the sections were stained with the antibody to insulin (Linco Research, St. Charles, Mo.) and glucagons (DacoCytomation, Carpinteria, Calif.) followed by species-specific secondary horseradish peroxidase-conjugated antibody and a 3,3′-diaminobenzidine substrate.
Insulin injections were then suspended. Mice which after the onset of the disease received insulin became hyperglycemic in a matter of 2-3 days and were then sacrificed according to NIH guidelines.

[7] = AG3340 1 mg/kg i.p. with insulin, 40 days

In the case of `CC1(C)SCCN(S(=O)(=O)c2ccc(Oc3ccncc3)cc2)[C@H]1C(=O)NO` [AG3340], the “delay of the onset of diabetes compared with the control” value (NOD mice [1]; Example 1: cells co-incubated with AG3340, 1 mg/kg i.p. on days 0, 2, 4, 6, 8, 10) is given as about 2 fold, the “delay of the onset of diabetes compared to the control” value (NOD mice [1]; Example 3: 1 mg/kg i.p. 30 min prior to cells, then every other day) is given as “approximately 2 fold” and the “dose inducing musculoskeletal effects that required dose discontinuation in more than half of the subjects” value ([2]; 2 to 100 mg/day in two doses per day) is given as “above 25 mg/day”. For the same molecule, the severe dose-limiting toxicity ([2]; 2 to 100 mg/day) was “did not result in severe dose-limiting toxicity”, the “activation of MMP-2 in adherent cells” value (MT1-MMP [3]; Example 2: AG3340 50 μM, TIMP-1 and TIMP-2 100 ng/ml, 18 h) was “fully blocked” and the “activation of MMP-2 in adherent cells” value (MT1-MMP [3]; Example 3: inhibitors added for 18 h) was “fully blocked”. The “shedding of CD44 in adherent cells” value ([4]; Example 2: AG3340 50 μM, TIMP-1 and TIMP-2 100 ng/ml) was “fully blocked”, the “shedding of CD44 in adherent cells” value ([4]; Example 3) was “fully blocked” and the “Ki for MT1-MMP” value (MT1-MMP [5]) was “sub-nanomolar”. The “islet regeneration in the pancreatic parenchyma” value (NOD mice [6]; [7]) was “de novo formation of the islet-like structures”, the “number of the intact islets and the islets with limited peri-islet insulitis” value (NOD mice [6]; [7]) was “increase” and the “glycemia after insulin injections were suspended” value (NOD mice [6]; insulin jointly with AG3340 for 40 days, then no external insulin) was “normoglycemic/mildly hyperglycemic for several weeks”. The “severity of insulitis compared to the control” value (NOD mice [6]; insulin s.c. jointly with AG3340 1 mg/kg i.p. every two-three days, 40 days) was “significant and promising reduction” and the “return of overtly diabetic mice to normoglycemia” value (NOD mice [6]; short-term treatment, AG3340 1 mg/kg i.p. with insulin, 40 days) was “not sufficient”.
